Reference: patent US20240009204A1 (Starton Therapeutics, Inc., priority 2020, published 2024)
Marks after values point to notes of the source that are not given here.

Legend:
[1] = test system: healthy female volunteers; assay: Phase 1 study: antiemetic effect of oral olanzapine doses after apomorphine challenge; assay type: in vivo, human; conditions: for Nausea Score 1-120 min. / Nausea Score 1-120 min. (severity in words) / Retching (incidence) / Vomiting (incidence): apomorphine challenge day 8; for Nausea Score 1-120 min.: 1=no nausea, 10=severe nausea
Protocol: Twenty-four healthy female volunteers were enrolled. Four active-treatment groups and a cohort of placebo-treated subjects were evaluated.
Subjects were administered study drug once daily for 8 days. During this period, subjects maintained a study diary of their side effects. The subject diary was used to collect on a daily basis any adverse events including an assessment of the presence and/or intensity of sedation on a numeric scale where 1=no sedation and 10=excessive sedation.
On the 8th day, subjects were administered apomorphine at a dose of 0.05 mg/kg and assessed over 6 hours. During this period, subjects were asked to record episodes of nausea on a numeric scale every 15 minutes for the duration of assessment. The intensity of nausea was captured using a 1-10 rating scale where 1=no nausea and 10=severe nausea. Emesis intensity was also captured where 1=no emesis and 10=severe emesis. Episodes of retching or emesis were collected and measured for the absolute number of retches or vomits during the collection period and documented for the time of the specific event following the administration of the apomorphine.

[2] = clinical; conditions: human, plasma, po
[3] = oral, statistical integration of nausea scores and incidence of retching and vomiting

Cc1cc2c(s1)Nc1ccccc1N=C2N1CCN(C)CC1 [olanzapine, 2-methyl-10-(4-methyl-1-piperazinyl)-4H-thieno-[2,3-b][1.5]benzo-diazepine]
Nausea severity scores 0-120 min following apomorphine challenge, versus placebo ([1]; 2 mg and 8 mg doses): not significantly different than placebo
Nausea severity scores 0-120 min following apomorphine challenge, versus placebo ([1]; 4 mg and 6 mg steady state doses, p<0.05): significantly different than placebo
maximum intensity of nausea, compared between doses ([1]; between the 4 mg, 6 mg and 8 mg dose): no different
Nausea Score 1-120 min. ([1]; oral 2 mg a day for 8 days): 6**
Nausea Score 1-120 min. (severity in words) ([1]; oral 2 mg a day): Moderate
Retching (incidence) ([1]; oral 2 mg a day): 40%
Vomiting (incidence) ([1]; oral 2 mg a day): 40%
Nausea Score 1-120 min. ([1]; oral 4 mg a day for 8 days): 3.4 #
Nausea Score 1-120 min. (severity in words) ([1]; oral 4 mg a day): Mild
Retching (incidence) ([1]; oral 4 mg a day): 0%
Vomiting (incidence) ([1]; oral 4 mg a day): 20%
Nausea Score 1-120 min. ([1]; oral 6 mg a day for 8 days): 3.7 #
Nausea Score 1-120 min. (severity in words) ([1]; oral 6 mg a day): Mild
Retching (incidence) ([1]; oral 6 mg a day): 0%
Vomiting (incidence) ([1]; oral 6 mg a day): 0%
Nausea Score 1-120 min. ([1]; oral 8 mg a day for 8 days): 5**
Nausea Score 1-120 min. (severity in words) ([1]; oral 8 mg a day): Mild
Retching (incidence) ([1]; oral 8 mg a day): 20%
Vomiting (incidence) ([1]; oral 8 mg a day): 20%
minimum effective dose for nausea [1, 3]: 4 mg a day
optimal dose for nausea and vomiting [1, 3]: 6 mg a day
Cmax at 1 day ([2]; 4 mg): 4 to 6 ng/mL
Cmax at 1 day ([2]; 6 mg): 6 to 9 ng/mL
